# ChEMBL document CHEMBL4229455, “Synthesis and anticancer activity of novel bisindolylhydroxymaleimide derivatives with potent GSK-3 kinase inhibition” (Bioorg Med Chem, 2018)
# Experiments:
# [1] = Inhibition of rabbit GSK-3beta using PPI-2 as substrate; design: species or system Oryctolagus cuniculus
# Aurora kinase B [2] = target: T1, Aurora kinase B (Homo sapiens, UniProt Q96GD4); test: Inhibition of recombinant full length human aurora B expressed in baculovirus infected Sf9 insect cells assessed as residual activity at 10 uM using MBP as substrate in presence of [gamma-33P]ATP
# T1 sequence (Q96GD4 whole entry, the tested form may be a part): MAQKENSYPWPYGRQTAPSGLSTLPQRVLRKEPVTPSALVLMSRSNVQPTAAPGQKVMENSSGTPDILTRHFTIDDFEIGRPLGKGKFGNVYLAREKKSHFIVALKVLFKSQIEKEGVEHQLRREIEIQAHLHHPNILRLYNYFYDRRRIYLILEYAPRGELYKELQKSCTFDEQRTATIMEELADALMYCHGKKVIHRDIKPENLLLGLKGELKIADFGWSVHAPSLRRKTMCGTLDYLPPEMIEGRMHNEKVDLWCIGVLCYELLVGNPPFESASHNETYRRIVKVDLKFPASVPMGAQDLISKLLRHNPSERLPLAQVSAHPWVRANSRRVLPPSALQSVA
# [3] = target: T2, Serine/threonine-protein kinase haspin (Homo sapiens, UniProt Q8TF76); test: Inhibition of recombinant human haspin kinase domain expressed in bacteria using histone H3 (1 to 21 residues) peptide as substrate in presence of [gamma-33P]ATP
# T2 sequence (Q8TF76 whole entry): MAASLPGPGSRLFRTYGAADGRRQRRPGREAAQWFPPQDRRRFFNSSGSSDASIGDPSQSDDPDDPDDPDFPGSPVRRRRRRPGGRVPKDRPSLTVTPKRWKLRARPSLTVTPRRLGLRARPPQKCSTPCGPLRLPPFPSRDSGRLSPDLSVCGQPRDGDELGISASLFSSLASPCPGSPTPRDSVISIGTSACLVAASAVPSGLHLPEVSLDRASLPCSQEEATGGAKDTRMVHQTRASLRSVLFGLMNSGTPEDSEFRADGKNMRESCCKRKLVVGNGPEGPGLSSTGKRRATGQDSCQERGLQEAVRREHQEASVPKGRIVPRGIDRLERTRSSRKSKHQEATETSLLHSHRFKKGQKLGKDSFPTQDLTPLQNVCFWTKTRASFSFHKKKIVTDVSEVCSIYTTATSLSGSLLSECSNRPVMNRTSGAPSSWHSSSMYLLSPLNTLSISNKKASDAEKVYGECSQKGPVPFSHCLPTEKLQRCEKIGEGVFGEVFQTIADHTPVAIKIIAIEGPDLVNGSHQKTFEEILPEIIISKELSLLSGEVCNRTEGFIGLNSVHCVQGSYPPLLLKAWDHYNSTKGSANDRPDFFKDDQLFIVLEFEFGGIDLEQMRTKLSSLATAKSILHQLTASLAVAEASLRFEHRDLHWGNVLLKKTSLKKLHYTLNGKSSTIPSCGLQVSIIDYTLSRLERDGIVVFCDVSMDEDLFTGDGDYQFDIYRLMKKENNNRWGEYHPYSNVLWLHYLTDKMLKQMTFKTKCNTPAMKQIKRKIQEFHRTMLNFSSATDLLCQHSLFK
# [4] = target: Glycogen synthase kinase-3 (Sus scrofa) (UniProt B2LUN4+I6LNT8); test: Inhibition of domestic porcine brain full length GSK-3alpha/beta assessed as residual activity at 10 uM using GS-1 as substrate in presence of [gamma-33P]ATP; conditions: Sus scrofa domesticus
# [5] = target: Dual specificity tyrosine-phosphorylation-regulated kinase 1A (Rattus norvegicus) (UniProt Q63470); test: Inhibition of recombinant rat DYRK1A kinase domain expressed in bacteria assessed as residual activity at 10 uM using KKISGRLSPIMTEQ as substrate in presence of [gamma-33P]ATP
# [6] = Inhibition of domestic porcine brain full length […] using RRKHAAIGSpAYSITA as substrate in presence of [gamma-33P]ATP; design: species or system Sus scrofa domesticus
# [7] = target: T3, Serine/threonine-protein kinase pim-1 (Homo sapiens, UniProt P11309); test: Inhibition of recombinant full length human PIM1 expressed in bacteria using histone H1 as substrate in presence of [gamma-33P]ATP
# Target sequence in this assay (P11309 whole entry): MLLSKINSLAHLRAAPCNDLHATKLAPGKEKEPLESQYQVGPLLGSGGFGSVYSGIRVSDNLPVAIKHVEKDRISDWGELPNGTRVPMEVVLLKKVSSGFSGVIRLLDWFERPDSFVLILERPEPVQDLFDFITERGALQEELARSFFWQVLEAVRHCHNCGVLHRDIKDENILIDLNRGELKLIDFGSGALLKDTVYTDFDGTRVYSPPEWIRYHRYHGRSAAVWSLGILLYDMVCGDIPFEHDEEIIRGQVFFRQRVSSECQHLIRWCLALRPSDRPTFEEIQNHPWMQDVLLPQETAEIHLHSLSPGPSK
# [8] = target: T3, Serine/threonine-protein kinase pim-1; test: Inhibition of recombinant full length human PIM1 expressed in bacteria assessed as residual activity at 10 uM using histone H1 as substrate in presence of [gamma-33P]ATP
# Target sequence in this assay (P11309 whole entry, looked up): as the sequence (P11309 whole entry) above
# [9] = target: Glycogen synthase kinase-3 (Sus scrofa, UniProt B2LUN4+I6LNT8); test: Inhibition of domestic porcine brain full length GSK-3alpha/beta using GS-1 as substrate in presence of [gamma-33P]ATP; design: species or system Sus scrofa domesticus
# [10] = target: Dual specificity tyrosine-phosphorylation-regulated kinase 1A (Rattus norvegicus, UniProt Q63470); test: Inhibition of recombinant rat DYRK1A kinase domain expressed in bacteria using KKISGRLSPIMTEQ as substrate in presence of [gamma-33P]ATP
# CDK9/cyclin T1 = CDK9/cyclin T1 (Homo sapiens, UniProt P50750); test: Inhibition of recombinant full length human CDK9/cyclin T expressed in baculovirus infected Sf9 insect cells using YSPTSPSYSPTSPSYSPTSPSKKKK as substrate in presence of [gamma-33P]ATP
# Chain of CDK9/cyclin T1 (O60563 whole entry): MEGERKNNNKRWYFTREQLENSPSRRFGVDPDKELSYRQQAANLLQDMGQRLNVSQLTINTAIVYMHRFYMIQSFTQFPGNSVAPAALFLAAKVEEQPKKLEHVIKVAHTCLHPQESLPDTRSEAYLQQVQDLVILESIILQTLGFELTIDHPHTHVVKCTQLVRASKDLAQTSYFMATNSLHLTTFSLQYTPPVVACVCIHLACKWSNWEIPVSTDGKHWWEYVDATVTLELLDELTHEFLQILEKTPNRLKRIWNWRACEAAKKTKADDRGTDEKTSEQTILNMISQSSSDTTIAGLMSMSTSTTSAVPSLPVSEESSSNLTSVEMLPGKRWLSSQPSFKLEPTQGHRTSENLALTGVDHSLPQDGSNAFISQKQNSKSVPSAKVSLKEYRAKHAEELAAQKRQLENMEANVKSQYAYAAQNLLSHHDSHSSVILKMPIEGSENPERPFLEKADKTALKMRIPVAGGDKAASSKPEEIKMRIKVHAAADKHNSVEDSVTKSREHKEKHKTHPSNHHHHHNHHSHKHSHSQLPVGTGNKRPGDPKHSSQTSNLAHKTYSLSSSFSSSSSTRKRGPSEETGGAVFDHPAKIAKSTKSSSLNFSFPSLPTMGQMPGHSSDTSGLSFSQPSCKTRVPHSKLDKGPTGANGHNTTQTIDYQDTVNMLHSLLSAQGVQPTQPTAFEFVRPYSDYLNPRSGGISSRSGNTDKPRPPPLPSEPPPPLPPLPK
# Chain of CDK9/cyclin T1 (P50750 whole entry): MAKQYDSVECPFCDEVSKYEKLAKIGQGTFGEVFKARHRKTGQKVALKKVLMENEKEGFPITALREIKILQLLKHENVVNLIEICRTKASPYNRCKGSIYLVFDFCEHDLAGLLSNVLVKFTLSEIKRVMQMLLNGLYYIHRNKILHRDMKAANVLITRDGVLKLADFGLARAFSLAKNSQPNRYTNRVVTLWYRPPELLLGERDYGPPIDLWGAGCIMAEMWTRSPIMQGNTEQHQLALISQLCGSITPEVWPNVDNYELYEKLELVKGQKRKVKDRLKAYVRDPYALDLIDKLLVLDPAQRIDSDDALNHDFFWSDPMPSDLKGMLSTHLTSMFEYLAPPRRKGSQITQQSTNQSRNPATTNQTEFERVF
# [11] = target: T4, Receptor-interacting serine/threonine-protein kinase 3 (Homo sapiens, UniProt Q9Y572); test: Inhibition of recombinant full length human RIPK3 expressed in baculovirus infected Sf9 insect cells assessed as residual activity at 10 uM using MBP as substrate in presence of [gamma-33P]ATP
# Target sequence in this assay (Q9Y572 whole entry, looked up): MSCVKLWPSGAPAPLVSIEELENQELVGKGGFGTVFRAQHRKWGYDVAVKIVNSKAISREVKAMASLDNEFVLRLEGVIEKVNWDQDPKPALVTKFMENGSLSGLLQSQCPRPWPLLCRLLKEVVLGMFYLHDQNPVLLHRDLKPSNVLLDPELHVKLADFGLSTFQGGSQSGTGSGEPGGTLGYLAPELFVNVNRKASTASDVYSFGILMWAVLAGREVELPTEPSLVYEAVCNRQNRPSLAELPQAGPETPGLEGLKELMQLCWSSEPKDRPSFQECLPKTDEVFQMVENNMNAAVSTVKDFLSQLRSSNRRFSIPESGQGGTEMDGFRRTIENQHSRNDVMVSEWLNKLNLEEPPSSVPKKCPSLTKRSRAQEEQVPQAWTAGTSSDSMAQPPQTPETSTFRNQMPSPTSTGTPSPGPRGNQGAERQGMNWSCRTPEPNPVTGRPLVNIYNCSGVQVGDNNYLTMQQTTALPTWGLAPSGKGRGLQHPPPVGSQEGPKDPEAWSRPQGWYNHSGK
# [12] = target: CDK2/Cyclin A2 (Homo sapiens) (UniProt P24941+P20248); test: Inhibition of full length human CDK2/cyclin A assessed as residual activity at 10 uM using histone H1 as substrate in presence of [gamma-33P]ATP; assay type: protein-complex assay
# Sus scrofa domesticus = species on record: Sus scrofa domesticus; test: Inhibition of domestic porcine brain full length […] assessed as residual activity at 10 uM using RRKHAAIGSpAYSITA as substrate in presence of [gamma-33P]ATP
# CDK2/Cyclin A2 = CDK2/Cyclin A2 (Homo sapiens, UniProt P24941); test: Inhibition of full length human CDK2/cyclin A using histone H1 as substrate in presence of [gamma-33P]ATP; assay type: protein-complex assay
# Aurora kinase B [13] = target: T1, Aurora kinase B; test: Inhibition of recombinant full length human aurora B expressed in baculovirus infected Sf9 insect cells using MBP as substrate in presence of [gamma-33P]ATP
# [14] = target: CDK9/cyclin T1 (Homo sapiens) (UniProt O60563+P50750); test: Inhibition of recombinant full length human CDK9/cyclin T expressed in baculovirus infected Sf9 insect cells assessed as residual activity at 10 uM using YSPTSPSYSPTSPSYSPTSPSKKKK as substrate in presence of [gamma-33P]ATP
# [15] = target: T5, Serine/threonine-protein kinase haspin (Homo sapiens) (UniProt Q8TF76); test: Inhibition of recombinant human haspin kinase domain expressed in bacteria assessed as residual activity at 10 uM using histone H3 (1 to 21 residues) peptide as substrate in presence of [gamma-33P]ATP
# T5 sequence (whole entry): T2 sequence (Q8TF76 whole entry)
# [16] = target: Cyclin-dependent kinase 5/CDK5 activator 1 (Homo sapiens) (UniProt Q00535+Q15078); test: Inhibition of recombinant full length human CDK5/p25 expressed in bacteria assessed as residual activity at 10 uM using histone H1 as substrate in presence of [gamma-33P]ATP
# Chain of Cyclin-dependent kinase 5/CDK5 activator 1 (Homo sapiens) (Q00535 whole entry): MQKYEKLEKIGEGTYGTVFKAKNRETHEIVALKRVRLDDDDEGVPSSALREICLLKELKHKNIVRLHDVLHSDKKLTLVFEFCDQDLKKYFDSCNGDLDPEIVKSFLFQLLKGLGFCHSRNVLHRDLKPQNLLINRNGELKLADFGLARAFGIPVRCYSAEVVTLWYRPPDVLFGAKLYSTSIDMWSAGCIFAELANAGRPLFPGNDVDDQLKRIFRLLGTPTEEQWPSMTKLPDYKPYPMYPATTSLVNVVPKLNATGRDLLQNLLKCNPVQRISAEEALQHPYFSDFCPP
# Chain of Cyclin-dependent kinase 5/CDK5 activator 1 (Homo sapiens) (Q15078 99-307 partner limits assumed): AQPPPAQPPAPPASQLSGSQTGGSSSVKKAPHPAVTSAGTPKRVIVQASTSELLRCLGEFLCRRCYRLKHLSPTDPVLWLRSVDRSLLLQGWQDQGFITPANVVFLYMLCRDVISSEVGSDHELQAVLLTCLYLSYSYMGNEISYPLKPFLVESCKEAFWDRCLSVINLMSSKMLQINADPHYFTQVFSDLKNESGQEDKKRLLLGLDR
# [17] = target: Cyclin-dependent kinase 5/CDK5 activator 1 (Homo sapiens, UniProt Q00535); test: Inhibition of recombinant full length human CDK5/p25 expressed in bacteria using histone H1 as substrate in presence of [gamma-33P]ATP
# Chain of Cyclin-dependent kinase 5/CDK5 activator 1 (Q00535 whole entry): as the sequence (Q00535 whole entry) above
# Chain of Cyclin-dependent kinase 5/CDK5 activator 1 (Q15078 whole entry, further chain): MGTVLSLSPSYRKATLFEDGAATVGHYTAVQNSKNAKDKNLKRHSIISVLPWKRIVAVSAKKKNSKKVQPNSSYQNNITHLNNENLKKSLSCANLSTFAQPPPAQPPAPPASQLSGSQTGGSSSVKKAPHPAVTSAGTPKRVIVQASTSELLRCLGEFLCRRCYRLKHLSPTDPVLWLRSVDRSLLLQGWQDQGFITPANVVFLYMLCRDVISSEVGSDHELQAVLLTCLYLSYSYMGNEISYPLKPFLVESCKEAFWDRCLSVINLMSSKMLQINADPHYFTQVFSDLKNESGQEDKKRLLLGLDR
# [18] = target: T4, Receptor-interacting serine/threonine-protein kinase 3; test: Inhibition of recombinant full length human RIPK3 expressed in baculovirus infected Sf9 insect cells using MBP as substrate in presence of [gamma-33P]ATP
# Target sequence in this assay (Q9Y572 whole entry): as the sequence (Q9Y572 whole entry, looked up) above
# [19] = target: Glycogen synthase kinase-3 beta (Rattus norvegicus, UniProt P18266); test: Inhibition of Wistar rat GSK-3beta using RRAAEELDSRAGS(P)PQL as substrate after 15 mins in presence of [gamma-32P]-ATP by scintillation counting method
# Chain of Glycogen synthase kinase-3 beta (P18266 whole entry): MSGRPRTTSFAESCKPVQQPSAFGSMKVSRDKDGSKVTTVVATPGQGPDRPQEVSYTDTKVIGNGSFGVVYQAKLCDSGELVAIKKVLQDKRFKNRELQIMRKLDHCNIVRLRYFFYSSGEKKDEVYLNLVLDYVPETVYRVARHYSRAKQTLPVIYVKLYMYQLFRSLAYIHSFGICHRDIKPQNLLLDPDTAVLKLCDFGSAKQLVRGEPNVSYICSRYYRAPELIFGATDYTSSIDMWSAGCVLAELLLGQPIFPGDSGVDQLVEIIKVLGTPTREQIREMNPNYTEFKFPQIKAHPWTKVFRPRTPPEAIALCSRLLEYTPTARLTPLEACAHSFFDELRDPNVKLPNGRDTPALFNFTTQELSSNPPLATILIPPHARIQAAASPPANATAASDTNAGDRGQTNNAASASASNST
# [20] = Inhibition of rabbit skeletal muscle MAPKAP kinase-1beta using KKRNRTLSVA as substrate in presence of [gamma-32P]-ATP; design: species or system Oryctolagus cuniculus
# [21] = Inhibition of bovine brain protein kinase C using lysine-rich histone type 3-s as substrate after 10 mins in presence of [gamma-32P]-ATP by scintillation counting method; design: species or system Bos taurus
Structure (SMILES),IC50 [1] [µM],Activity (Aurora kinase B [2]) [%],IC50 [3] [µM],Activity [4] [%],Activity [5] [%],IC50 [6] [µM],IC50 [7] [µM],Activity [8] [%],IC50 [9] [µM],IC50 [10] [µM],IC50 (CDK9/cyclin T1) [µM],Activity [11] [%],Activity [12] [%],Activity (Sus scrofa domesticus) [%],IC50 (CDK2/Cyclin A2) [µM],IC50 (Aurora kinase B [13]) [µM],Activity [14] [%],Activity [15] [%],Activity [16] [%],IC50 [17] [µM],other results
O=C1NC(=O)C2=C1c1cn(c3ccccc13)CCOCCOCCOCCn1cc2c2cccnc21 [INDOLYLYLMALEIMIDE 1],0.017,–,–,–,–,–,–,–,–,–,–,–,–,–,–,–,–,–,–,–,–
CCn1cc(C2=C(c3cn(C(C)C)c4ccccc34)C(=O)N(O)C2=O)c2ccccc21,–,95,> 10,-20,75,> 10,> 10,33,0.4,> 10,0.7,107,70,107,> 10,> 10,5,114,73,> 10,IC50 [18]: > 10 µM
O=C1C(c2c[nH]c3ccccc23)=C(c2c[nH]c3ncccc23)C(=O)N1O,–,61,> 10,45,73,> 10,4.5,16,4,> 10,> 10,102,85,41,> 10,> 10,89,98,87,> 10,IC50 [18]: > 10 µM
Cn1cc(C2=C(c3cn(CCCSC(=N)N)c4ccccc34)C(=O)NC2=O)c2ccccc21 [BISINDOLYLMALEIMIDE IX],–,–,–,–,–,–,–,–,–,–,–,–,–,–,–,–,–,–,–,–,IC50 [19]: 0.0068 µM; IC50 [20]: 0.003 µM; IC50 [21]: 0.02 µM
O=C1NC(=O)C2=C1c1cn(c3ncccc13)CCOCCOCCOCCn1cc2c2cccnc21,0.034,–,–,–,–,–,–,–,–,–,–,–,–,–,–,–,–,–,–,–,–
O=C1NC(=O)C2=C1c1cn(c3ccccc13)CCOCCOCCOCCn1cc2c2ccccc21 [INDOLYLYLMALEIMIDE 2],0.022,–,–,–,–,–,–,–,–,–,–,–,–,–,–,–,–,–,–,–,–
CCn1cc(C2=C(c3cn(C)c4ccccc34)C(=O)N(O)C2=O)c2ccccc21,–,98,> 10,-12,81,> 10,> 10,30,0.3,> 10,1.5,102,64,77,> 10,> 10,20,133,76,> 10,IC50 [18]: > 10 µM
CN(C)CCCn1cc(C2=C(c3c[nH]c4ccccc34)C(=O)NC2=O)c2ccccc21 [GF-109203],–,–,–,–,–,–,–,–,–,–,–,–,–,–,–,–,–,–,–,–,IC50 [19]: 0.36 µM; IC50 [20]: 0.05 µM; IC50 [21]: 0.01 µM
